Source: ChEMBL document CHEMBL3046029, “Green approach towards the facile synthesis of dihydropyrano(c)chromene and pyrano[2,3-d]pyrimidine derivatives and their biological evaluation” (2013)
Activity calls are given as the source filed them. The rule behind the calls is not given here.

Legend:
[1] = test system: Pseudomonas aeruginosa; experiment: Antibacterial activity against Pseudomonas aeruginosa ATCC 27853 assessed as diameter of growth inhibition zone at 20 mg/ml after 24 hr by disk diffusion method; type: functional; conditions: ATCC 27853, 24 h, read-out: DIZ
[2] = test system: Salmonella typhi; experiment: Antibacterial activity against Salmonella enterica subsp. enterica serovar Typhi ATCC 19430 assessed as diameter of growth inhibition zone at 20 mg/ml after 24 hr by disk diffusion method; type: functional; conditions: ATCC 19430, 24 h, read-out: DIZ
[3] = test system: Klebsiella pneumoniae; experiment: Antibacterial activity against Klebsiella pneumoniae ATCC 15380 assessed as diameter of growth inhibition zone at 20 mg/ml after 24 hr by disk diffusion method; type: functional; conditions: ATCC 15380, 24 h, read-out: DIZ
[4] = test system: Citrobacter freundii; experiment: Antibacterial activity against Citrobacter freundii ATCC 8090 = MTCC 1658 assessed as diameter of growth inhibition zone at 20 mg/ml after 24 hr by disk diffusion method; type: functional; conditions: ATCC 8090 = MTCC 1658, 24 h, read-out: DIZ
[5] = test system: Salmonella typhi; experiment: Antibacterial activity against Salmonella enterica subsp. enterica serovar Typhi ATCC 19430 assessed as growth inhibition after 24 hr by disk diffusion method; type: functional
[6] = test system: Priestia megaterium; experiment: Antibacterial activity against Bacillus megaterium ATCC 12872 assessed as diameter of growth inhibition zone at 20 mg/ml after 24 hr by disk diffusion method; type: functional; conditions: ATCC 12872, 24 h, read-out: DIZ
[7] = test system: Escherichia coli; experiment: Antibacterial activity against Escherichia coli ATCC 25922 assessed as diameter of growth inhibition zone at 20 mg/ml after 24 hr by disk diffusion method; type: functional; conditions: ATCC 25922, 24 h, read-out: DIZ
[8] = test system: PC-3; experiment: Anticancer activity against Homo sapiens (human) PC3 cells at 0.1 to 100 uM by SRB assay; type: functional, cell-based
[9] = test system: OVCAR-3; experiment: Anticancer activity against Homo sapiens (human) OVCAR3 cells at 0.1 to 100 uM by SRB assay; type: functional, cell-based
[10] = test system: MDA-MB-435; experiment: Anticancer activity against Homo sapiens (human) MDA-MB-435 cells at 0.1 to 100 uM by SRB assay; type: functional, cell-based

N#CC1=C(N)Oc2[nH]c(=O)[nH]c(=O)c2C1c1cccs1 (stereo not drawn)
zone of inhibition at 20000 µg/mL [1]: 18 mm | zone of inhibition at 20000 µg/mL [2]: 22 mm | zone of inhibition at 20000 µg/mL [3]: 20 mm | zone of inhibition at 20000 µg/mL [4]: 12 mm | MIC [5]: 10 µg | zone of inhibition at 20000 µg/mL [6]: 12 mm | zone of inhibition at 20000 µg/mL [7]: 15 mm

Cc1ccsc1C1C(C#N)=C(N)OC2=C1C(=O)CC(C)(C)C2 (stereo not drawn)
zone of inhibition at 20000 µg/mL [1]: 22 mm | zone of inhibition at 20000 µg/mL [2]: 19 mm | zone of inhibition at 20000 µg/mL [3]: 20 mm | zone of inhibition at 20000 µg/mL [4]: 10 mm | MIC [5]: 10 µg | zone of inhibition at 20000 µg/mL [6]: 12 mm | zone of inhibition at 20000 µg/mL [7]: 21 mm

CC1(C)CC(=O)C2=C(C1)OC(N)=C(C#N)C2c1ccco1 (stereo not drawn)
zone of inhibition at 20000 µg/mL [1]: 14 mm | zone of inhibition at 20000 µg/mL [2]: 15 mm | Activity [8]: inactive | Activity [9]: inactive | Activity [10]: inactive | zone of inhibition at 20000 µg/mL [3]: 15 mm | zone of inhibition at 20000 µg/mL [4]: 10 mm | MIC [5]: 10 µg | zone of inhibition at 20000 µg/mL [6]: 12 mm | zone of inhibition at 20000 µg/mL [7]: 16 mm

N#CC1=C(N)Oc2[nH]c(=O)[nH]c(=O)c2C1c1ccco1 (stereo not drawn)
zone of inhibition at 20000 µg/mL [1]: 14 mm | zone of inhibition at 20000 µg/mL [2]: 18 mm | Activity [8]: inactive | Activity [9]: inactive | Activity [10]: inactive | zone of inhibition at 20000 µg/mL [3]: 16 mm | zone of inhibition at 20000 µg/mL [4]: 10 mm | MIC [5]: 10 µg | zone of inhibition at 20000 µg/mL [6]: 14 mm | zone of inhibition at 20000 µg/mL [7]: 12 mm

CC1(C)CC(=O)C2=C(C1)OC(N)=C(C#N)C2c1ccc[nH]1 (stereo not drawn)
zone of inhibition at 20000 µg/mL [1]: 20 mm | zone of inhibition at 20000 µg/mL [2]: 22 mm | zone of inhibition at 20000 µg/mL [3]: 19 mm | zone of inhibition at 20000 µg/mL [4]: 10 mm | MIC [5]: 10 µg | zone of inhibition at 20000 µg/mL [6]: 12 mm | zone of inhibition at 20000 µg/mL [7]: 20 mm

CC1(C)CC(=O)C2=C(C1)OC(N)=C(C#N)C2c1cccs1 (stereo not drawn)
zone of inhibition at 20000 µg/mL [1]: 20 mm | zone of inhibition at 20000 µg/mL [2]: 22 mm | zone of inhibition at 20000 µg/mL [3]: 19 mm | zone of inhibition at 20000 µg/mL [4]: 10 mm | MIC [5]: 10 µg | zone of inhibition at 20000 µg/mL [6]: 10 mm | zone of inhibition at 20000 µg/mL [7]: 20 mm

COc1cccc2c1C(=O)c1c(O)c3c(c(O)c1C2=O)C[C@@](O)(C(=O)CO)C[C@@H]3O[C@H]1C[C@H](N)[C@H](O)[C@H](C)O1
Activity [8]: Active | Activity [9]: Active | Activity [10]: Active

Cc1ccc(C2C(C#N)=C(N)Oc3[nH]c(=O)[nH]c(=O)c32)o1 (stereo not drawn)
zone of inhibition at 20000 µg/mL [1]: 15 mm | zone of inhibition at 20000 µg/mL [2]: 18 mm | zone of inhibition at 20000 µg/mL [3]: 17 mm | zone of inhibition at 20000 µg/mL [4]: 10 mm | MIC [5]: 10 µg | zone of inhibition at 20000 µg/mL [6]: 14 mm | zone of inhibition at 20000 µg/mL [7]: 12 mm

N#CC1=C(N)Oc2[nH]c(=O)[nH]c(=O)c2C1c1ccc[nH]1 (stereo not drawn)
zone of inhibition at 20000 µg/mL [1]: 18 mm | zone of inhibition at 20000 µg/mL [2]: 22 mm | zone of inhibition at 20000 µg/mL [3]: 20 mm | zone of inhibition at 20000 µg/mL [4]: 12 mm | MIC [5]: 10 µg | zone of inhibition at 20000 µg/mL [6]: 12 mm | zone of inhibition at 20000 µg/mL [7]: 14 mm

Cc1ccc(C2C(C#N)=C(N)OC3=C2C(=O)CC(C)(C)C3)s1 (stereo not drawn)
zone of inhibition at 20000 µg/mL [1]: 22 mm | zone of inhibition at 20000 µg/mL [2]: 19 mm | zone of inhibition at 20000 µg/mL [3]: 21 mm | zone of inhibition at 20000 µg/mL [4]: 10 mm | MIC [5]: 10 µg | zone of inhibition at 20000 µg/mL [6]: 10 mm | zone of inhibition at 20000 µg/mL [7]: 22 mm

Cc1ccsc1C1C(C#N)=C(N)Oc2[nH]c(=O)[nH]c(=O)c21 (stereo not drawn)
zone of inhibition at 20000 µg/mL [1]: 20 mm | zone of inhibition at 20000 µg/mL [2]: 21 mm | zone of inhibition at 20000 µg/mL [3]: 22 mm | zone of inhibition at 20000 µg/mL [4]: 12 mm | MIC [5]: 10 µg | zone of inhibition at 20000 µg/mL [6]: 10 mm | zone of inhibition at 20000 µg/mL [7]: 16 mm

Cc1ccc(C2C(C#N)=C(N)Oc3[nH]c(=O)[nH]c(=O)c32)s1 (stereo not drawn)
zone of inhibition at 20000 µg/mL [1]: 22 mm | zone of inhibition at 20000 µg/mL [2]: 20 mm | zone of inhibition at 20000 µg/mL [3]: 22 mm | zone of inhibition at 20000 µg/mL [4]: 12 mm | MIC [5]: 10 µg | zone of inhibition at 20000 µg/mL [6]: 10 mm | zone of inhibition at 20000 µg/mL [7]: 16 mm

Cc1ccc(C2C(C#N)=C(N)OC3=C2C(=O)CC(C)(C)C3)o1 (stereo not drawn)
zone of inhibition at 20000 µg/mL [1]: 15 mm | zone of inhibition at 20000 µg/mL [2]: 16 mm | zone of inhibition at 20000 µg/mL [3]: 15 mm | zone of inhibition at 20000 µg/mL [4]: 10 mm | MIC [5]: 10 µg | zone of inhibition at 20000 µg/mL [6]: 12 mm | zone of inhibition at 20000 µg/mL [7]: 17 mm
